Experimental data published in the NIST ThermoML archive (doi:10.1021/je034142v).
Several values for one entry are separate records, joined by “and”; a condition that tells them apart may be missing. Identical values can stand only once.

Details: Liquid; for mass density: vibrating tube

C1CCCC1 [cyclopentane]
Details	mass density [kg/m3]	viscosity
273.15 K, 325900 kPa	–	3.56 mPa·s
273.15 K, 350700 kPa	–	3.947 mPa·s
273.15 K, 379200 kPa	–	4.44 mPa·s
278.15 K, 101.33 kPa	759.64	–
278.16 K, 100 kPa	–	0.5288 mPa·s and 0.529 mPa·s
278.16 K, 2900 kPa	–	0.543 mPa·s
278.16 K, 5000 kPa	–	0.5539 mPa·s
278.16 K, 8100 kPa	–	0.5697 mPa·s
278.16 K, 10800 kPa	–	0.5838 mPa·s
278.16 K, 25900 kPa	–	0.6618 mPa·s
278.16 K, 50800 kPa	–	0.7981 mPa·s
278.16 K, 75800 kPa	–	0.9456 mPa·s
278.16 K, 100600 kPa	–	1.105 mPa·s
278.16 K, 125700 kPa	–	1.28 mPa·s
278.16 K, 150700 kPa	–	1.469 mPa·s
278.16 K, 175800 kPa	–	1.675 mPa·s
278.16 K, 200700 kPa	–	1.895 mPa·s
278.16 K, 225800 kPa	–	2.137 mPa·s
278.16 K, 250800 kPa	–	2.395 mPa·s
278.16 K, 275900 kPa	–	2.679 mPa·s
278.16 K, 300800 kPa	–	2.992 mPa·s
278.16 K, 325900 kPa	–	3.323 mPa·s
278.16 K, 350900 kPa	–	3.683 mPa·s
278.16 K, 380100 kPa	–	4.144 mPa·s
283.15 K, 101.33 kPa	754.76	–
287.93 K, 100 kPa	–	0.471 mPa·s and 0.4712 mPa·s
287.93 K, 3000 kPa	–	0.4845 mPa·s
287.93 K, 5400 kPa	–	0.4955 mPa·s
287.93 K, 8100 kPa	–	0.5084 mPa·s
287.93 K, 10800 kPa	–	0.5216 mPa·s
287.93 K, 25900 kPa	–	0.5923 mPa·s
287.93 K, 50900 kPa	–	0.7153 mPa·s
287.93 K, 75800 kPa	–	0.8468 mPa·s
287.93 K, 100800 kPa	–	0.9885 mPa·s
287.93 K, 125700 kPa	–	1.143 mPa·s
287.93 K, 150600 kPa	–	1.308 mPa·s
287.93 K, 175700 kPa	–	1.488 mPa·s
287.93 K, 200600 kPa	–	1.681 mPa·s
287.93 K, 225700 kPa	–	1.893 mPa·s
287.93 K, 250700 kPa	–	2.121 mPa·s
287.93 K, 275700 kPa	–	2.361 mPa·s
287.93 K, 300800 kPa	–	2.623 mPa·s
287.93 K, 325500 kPa	–	2.901 mPa·s
287.93 K, 349500 kPa	–	3.196 mPa·s
287.93 K, 376900 kPa	–	3.563 mPa·s
288.15 K, 101.33 kPa	749.85	–
293.15 K, 101.33 kPa	744.9	–
298 K, 100 kPa	–	0.4191 mPa·s and 0.4196 mPa·s
298 K, 3000 kPa	–	0.4308 mPa·s
298 K, 5300 kPa	–	0.4404 mPa·s
298 K, 8100 kPa	–	0.4526 mPa·s
298 K, 10900 kPa	–	0.4644 mPa·s
298 K, 26000 kPa	–	0.5288 mPa·s
298 K, 50800 kPa	–	0.639 mPa·s
298 K, 75800 kPa	–	0.7572 mPa·s
298 K, 100800 kPa	–	0.8842 mPa·s
298 K, 125800 kPa	–	1.021 mPa·s
298 K, 150700 kPa	–	1.167 mPa·s
298 K, 175700 kPa	–	1.324 mPa·s
298 K, 200700 kPa	–	1.495 mPa·s
298 K, 225700 kPa	–	1.678 mPa·s
298 K, 250700 kPa	–	1.874 mPa·s
298 K, 275700 kPa	–	2.085 mPa·s
298 K, 300600 kPa	–	2.311 mPa·s
298 K, 324900 kPa	–	2.542 mPa·s
298 K, 349600 kPa	–	2.793 mPa·s
298 K, 375700 kPa	–	3.084 mPa·s
298.03 K, 100 kPa	–	0.419 mPa·s
298.03 K, 5500 kPa	–	0.441 mPa·s
298.03 K, 7800 kPa	–	0.4505 mPa·s
298.03 K, 10800 kPa	–	0.4637 mPa·s
298.03 K, 25900 kPa	–	0.5276 mPa·s
298.03 K, 50900 kPa	–	0.6379 mPa·s
298.03 K, 75800 kPa	–	0.7549 mPa·s
298.03 K, 100800 kPa	–	0.8807 mPa·s
298.03 K, 125800 kPa	–	1.016 mPa·s
298.03 K, 150700 kPa	–	1.163 mPa·s
298.03 K, 175700 kPa	–	1.322 mPa·s
298.03 K, 200700 kPa	–	1.491 mPa·s
298.03 K, 225600 kPa	–	1.673 mPa·s
298.03 K, 250600 kPa	–	1.871 mPa·s
298.03 K, 275600 kPa	–	2.081 mPa·s
298.03 K, 300400 kPa	–	2.305 mPa·s
298.03 K, 325300 kPa	–	2.545 mPa·s
298.03 K, 350100 kPa	–	2.8 mPa·s
298.03 K, 378000 kPa	–	3.112 mPa·s
298.15 K, 101.33 kPa	739.92	–

101.33 kPa, Capillary tube (Ostwald / Ubbelohde) method
Details	viscosity [mPa·s]
278.15 K	0.523
283.15 K	0.4932
288.15 K	0.4657
293.15 K	0.4405
298.15 K	0.4173
